Here are results for 2 compounds from patent US20240237643A1, “COMPOSITIONS WITH VIRUCIDAL AND/OR ANTIVIRAL ACTIVITY” (priority 2020, published 2024).

Common to all, as to assay: Virucidal activity, quantitative suspension test DIN EN 14476
Assay type in all cases: cell-based

The test system of one test is Coronavirus (MHV-3). How it is done: Testing was conducted over a period of 1 to 10 minutes. Activity against the following viruses was determined: • Coronavirus (MHV-3) • Influenza virus (H1N1) • Herpes simplex virus (HV) • Human respiratory syncytial virus (HRSV)
In this context (+) means that more than 99.99% of all viruses were inactivated; this is equivalent to a reduction factor of 10,000.

The next test concerns Influenza virus (H1N1).
In test [1] the test system is Herpes simplex virus (HV).
Test [2] concerns Human respiratory syncytial virus (HRSV).
Where [3] appears, read: 0.1 wt.-percent in water, 1 min.
The mark [4] stands for this setting: 0.1 wt.-percent in water, 10 min.
[5] abbreviates: 10 wt.-percent in water, 10 min.

Each structure is given as a SMILES string.

As to `CCCCCCCCC(O)CO` (stereo not drawn) [1,2-decanediol], the “Virucidal activity MHV-3” value is “(+) ((+) means that more than 99.99% of all viruses were inactivated; this is equivalent to a reduction factor of 10,000)” in the test with Coronavirus (MHV-3) (setting [3]); “(+) ((+) means that more than 99.99% of all viruses were inactivated; this is equivalent to a reduction factor of 10,000)” with Coronavirus (MHV-3) (setting [4]); “(+) ((+) means that more than 99.99% of all viruses were inactivated; this is equivalent to a reduction factor of 10,000)” in the test with Coronavirus (MHV-3) (1 wt.-percent in water, 1 min); “(+) ((+) means that more than 99.99% of all viruses were inactivated; this is equivalent to a reduction factor of 10,000)” in the test with Coronavirus (MHV-3) (1 wt.-percent in water, 10 min); “(+) ((+) means that more than 99.99% of all viruses were inactivated; this is equivalent to a reduction factor of 10,000)” in the test with Coronavirus (MHV-3) (10 wt.-percent in water, 1 min); “(+) ((+) means that more than 99.99% of all viruses were inactivated; this is equivalent to a reduction factor of 10,000)” in the test with Coronavirus (MHV-3) (setting [5]). In addition, the “Virucidal activity H1N1” value in the test with Influenza virus (H1N1) (setting [3]) is reported as “(+) ((+) means that more than 99.99% of all viruses were inactivated; this is equivalent to a reduction factor of 10,000)”; in the test with Influenza virus (H1N1) (setting [4]) it was “(+) ((+) means that more than 99.99% of all viruses were inactivated; this is equivalent to a reduction factor of 10,000)”; with Influenza virus (H1N1) (1 wt.-percent in water, 1 min), “(+) ((+) means that more than 99.99% of all viruses were inactivated; this is equivalent to a reduction factor of 10,000)”; in the test with Influenza virus (H1N1) (1 wt.-percent in water, 10 min), “(+) ((+) means that more than 99.99% of all viruses were inactivated; this is equivalent to a reduction factor of 10,000)”; in the test on Influenza virus (H1N1) (10 wt.-percent in water, 1 min), “(+) ((+) means that more than 99.99% of all viruses were inactivated; this is equivalent to a reduction factor of 10,000)”; in the test on Influenza virus (H1N1) (setting [5]), “(+) ((+) means that more than 99.99% of all viruses were inactivated; this is equivalent to a reduction factor of 10,000)”. Besides, the “Virucidal activity HV” value in test [1] (setting [3]) is recorded as “(+) ((+) means that more than 99.99% of all viruses were inactivated; this is equivalent to a reduction factor of 10,000)”; in test [1] (setting [4]) it was “(+) ((+) means that more than 99.99% of all viruses were inactivated; this is equivalent to a reduction factor of 10,000)”; in test [1] (1 wt.-percent in water, 1 min) it was “(+) ((+) means that more than 99.99% of all viruses were inactivated; this is equivalent to a reduction factor of 10,000)”; in test [1] (1 wt.-percent in water, 10 min), “(+) ((+) means that more than 99.99% of all viruses were inactivated; this is equivalent to a reduction factor of 10,000)”; in test [1] (10 wt.-percent in water, 1 min) it was “(+) ((+) means that more than 99.99% of all viruses were inactivated; this is equivalent to a reduction factor of 10,000)”; in test [1] (setting [5]), “(+) ((+) means that more than 99.99% of all viruses were inactivated; this is equivalent to a reduction factor of 10,000)”. In addition, the “Virucidal activity HRSV” value in test [2] (setting [3]) is reported as “(+) ((+) means that more than 99.99% of all viruses were inactivated; this is equivalent to a reduction factor of 10,000)”; in test [2] (setting [4]), “(+) ((+) means that more than 99.99% of all viruses were inactivated; this is equivalent to a reduction factor of 10,000)”; in test [2] (1 wt.-percent in water, 1 min), “(+) ((+) means that more than 99.99% of all viruses were inactivated; this is equivalent to a reduction factor of 10,000)”; in test [2] (1 wt.-percent in water, 10 min), “(+) ((+) means that more than 99.99% of all viruses were inactivated; this is equivalent to a reduction factor of 10,000)”; in test [2] (10 wt.-percent in water, 1 min) it was “(+) ((+) means that more than 99.99% of all viruses were inactivated; this is equivalent to a reduction factor of 10,000)”; in test [2] (setting [5]), “(+) ((+) means that more than 99.99% of all viruses were inactivated; this is equivalent to a reduction factor of 10,000)”.
On to `Cc1cc(O)ccc1C(C)C` [4-isopropyl-3-methylphenol], for which the “Virucidal activity MHV-3” value with Coronavirus (MHV-3) (setting [3]) is “(+) ((+) means that more than 99.99% of all viruses were inactivated; this is equivalent to a reduction factor of 10,000)”; with Coronavirus (MHV-3) (setting [4]) it was “(+) ((+) means that more than 99.99% of all viruses were inactivated; this is equivalent to a reduction factor of 10,000)”; in the test on Coronavirus (MHV-3) (1 wt.-percent in water, 1 min), “(+) ((+) means that more than 99.99% of all viruses were inactivated; this is equivalent to a reduction factor of 10,000)”; with Coronavirus (MHV-3) (1 wt.-percent in water, 10 min) it was “(+) ((+) means that more than 99.99% of all viruses were inactivated; this is equivalent to a reduction factor of 10,000)”; with Coronavirus (MHV-3) (10 wt.-percent in water, 1 min) it was “(+) ((+) means that more than 99.99% of all viruses were inactivated; this is equivalent to a reduction factor of 10,000)”; in the test with Coronavirus (MHV-3) (setting [5]), “(+) ((+) means that more than 99.99% of all viruses were inactivated; this is equivalent to a reduction factor of 10,000)”. Further, the “Virucidal activity H1N1” value in the test on Influenza virus (H1N1) (setting [3]) is given as “(+) ((+) means that more than 99.99% of all viruses were inactivated; this is equivalent to a reduction factor of 10,000)”; in the test on Influenza virus (H1N1) (setting [4]), “(+) ((+) means that more than 99.99% of all viruses were inactivated; this is equivalent to a reduction factor of 10,000)”; in the test on Influenza virus (H1N1) (1 wt.-percent in water, 1 min), “(+) ((+) means that more than 99.99% of all viruses were inactivated; this is equivalent to a reduction factor of 10,000)”; with Influenza virus (H1N1) (1 wt.-percent in water, 10 min) it was “(+) ((+) means that more than 99.99% of all viruses were inactivated; this is equivalent to a reduction factor of 10,000)”; in the test on Influenza virus (H1N1) (10 wt.-percent in water, 1 min) it was “(+) ((+) means that more than 99.99% of all viruses were inactivated; this is equivalent to a reduction factor of 10,000)”; in the test on Influenza virus (H1N1) (setting [5]), “(+) ((+) means that more than 99.99% of all viruses were inactivated; this is equivalent to a reduction factor of 10,000)”. Moreover, the “Virucidal activity HV” value in test [1] (setting [3]) was “(+) ((+) means that more than 99.99% of all viruses were inactivated; this is equivalent to a reduction factor of 10,000)”; in test [1] (setting [4]), “(+) ((+) means that more than 99.99% of all viruses were inactivated; this is equivalent to a reduction factor of 10,000)”; in test [1] (1 wt.-percent in water, 1 min), “(+) ((+) means that more than 99.99% of all viruses were inactivated; this is equivalent to a reduction factor of 10,000)”; in test [1] (1 wt.-percent in water, 10 min), “(+) ((+) means that more than 99.99% of all viruses were inactivated; this is equivalent to a reduction factor of 10,000)”; in test [1] (10 wt.-percent in water, 1 min), “(+) ((+) means that more than 99.99% of all viruses were inactivated; this is equivalent to a reduction factor of 10,000)”; in test [1] (setting [5]), “(+) ((+) means that more than 99.99% of all viruses were inactivated; this is equivalent to a reduction factor of 10,000)”. Besides, the “Virucidal activity HRSV” value in test [2] (setting [3]) was “(+) ((+) means that more than 99.99% of all viruses were inactivated; this is equivalent to a reduction factor of 10,000)”; in test [2] (setting [4]), “(+) ((+) means that more than 99.99% of all viruses were inactivated; this is equivalent to a reduction factor of 10,000)”; in test [2] (1 wt.-percent in water, 1 min), “(+) ((+) means that more than 99.99% of all viruses were inactivated; this is equivalent to a reduction factor of 10,000)”; in test [2] (1 wt.-percent in water, 10 min), “(+) ((+) means that more than 99.99% of all viruses were inactivated; this is equivalent to a reduction factor of 10,000)”; in test [2] (10 wt.-percent in water, 1 min), “(+) ((+) means that more than 99.99% of all viruses were inactivated; this is equivalent to a reduction factor of 10,000)”; in test [2] (setting [5]), “(+) ((+) means that more than 99.99% of all viruses were inactivated; this is equivalent to a reduction factor of 10,000)”.
